Results published in BindingDB's records for doi:10.1016/j.bmcl.2018.11.048 (Advinus Therapeutics, 2019).

Target: T1, Fatty-acid amide hydrolase 1 (Homo sapiens, UniProt O00519)
T1 sequence (O00519 whole entry): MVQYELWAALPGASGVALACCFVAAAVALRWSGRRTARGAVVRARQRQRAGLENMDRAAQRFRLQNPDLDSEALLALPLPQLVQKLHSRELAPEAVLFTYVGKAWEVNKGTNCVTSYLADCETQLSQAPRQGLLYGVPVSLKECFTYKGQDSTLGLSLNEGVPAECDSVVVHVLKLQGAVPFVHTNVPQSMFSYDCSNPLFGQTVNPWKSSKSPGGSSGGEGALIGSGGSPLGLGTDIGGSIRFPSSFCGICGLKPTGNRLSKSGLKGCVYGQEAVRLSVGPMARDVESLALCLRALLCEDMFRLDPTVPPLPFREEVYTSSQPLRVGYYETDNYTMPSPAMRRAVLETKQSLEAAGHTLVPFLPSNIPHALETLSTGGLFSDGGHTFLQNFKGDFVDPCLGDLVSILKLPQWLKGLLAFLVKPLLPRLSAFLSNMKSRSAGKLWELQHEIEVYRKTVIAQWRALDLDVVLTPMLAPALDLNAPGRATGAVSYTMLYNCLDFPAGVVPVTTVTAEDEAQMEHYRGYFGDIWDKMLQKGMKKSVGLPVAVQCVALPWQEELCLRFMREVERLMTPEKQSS
Test: Inhibition of human transmembrane domain deficient FFAH expressed in Escherichia coli using AAMCA as substrate incubated for 1 min measured for 50 mins by fluorescence assay

IC50 | Compound
3 nM | Cc1cc(C(=O)NC2CCC(=Cc3cccc(Oc4ccc(C(F)(F)F)cn4)c3)CC2)cnc1N (stereo unspecified) [US9682953, 20.A-5]
2.2 nM | O=C(NC1CCC(=Cc2cccc(Oc3ccc(C(F)(F)F)cn3)c2)CC1)c1cnc2[nH]ccc2c1 (stereo unspecified) [US9682953, 20.A-13]
2.6 nM | O=C(NC1CCC(=Cc2cccc(Oc3ccc(C(F)(F)F)cn3)c2)CC1)c1cn[nH]c1 (stereo unspecified) [US9682953, 20.A-12]
2.2 nM | CCOC(=O)Cn1nc2c(c1C(C)C)C(c1ccc(Cl)cc1C)N(c1cc(Cl)ccc1C)C2=O (stereo unspecified) [US9682953, 20.A-1]
2.6 nM | O=C(NC1CCC(=Cc2cccc(Oc3ccc(C(F)(F)F)cn3)c2)CC1)c1cncnc1 (stereo unspecified) [US9682953, 20.A-20]

Target: T2, Fatty-acid amide hydrolase 1 [30-579] (Rattus norvegicus, UniProt P97612)
T2 construct: 30-579
T2 sequence (P97612 whole entry): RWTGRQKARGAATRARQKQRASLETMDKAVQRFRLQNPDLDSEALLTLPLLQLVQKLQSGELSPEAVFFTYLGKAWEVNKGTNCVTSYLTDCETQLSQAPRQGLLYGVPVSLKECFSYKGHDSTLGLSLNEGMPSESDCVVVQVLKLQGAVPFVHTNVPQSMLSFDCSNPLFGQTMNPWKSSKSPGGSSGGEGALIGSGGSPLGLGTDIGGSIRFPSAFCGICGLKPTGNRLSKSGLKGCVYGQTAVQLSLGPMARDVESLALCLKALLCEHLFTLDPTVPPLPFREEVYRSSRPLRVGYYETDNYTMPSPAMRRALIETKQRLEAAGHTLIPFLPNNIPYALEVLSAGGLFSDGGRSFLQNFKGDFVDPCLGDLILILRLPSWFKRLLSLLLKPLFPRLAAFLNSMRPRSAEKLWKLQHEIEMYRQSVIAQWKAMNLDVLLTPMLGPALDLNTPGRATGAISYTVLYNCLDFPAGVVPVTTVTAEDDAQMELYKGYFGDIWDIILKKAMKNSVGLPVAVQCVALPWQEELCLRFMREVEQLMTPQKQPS
Test: Inhibition of rat FFAH expressed in Escherichia coli using AAMCA as substrate incubated for 1 min measured for 50 mins by fluorescence assay

IC50 | Compound
29 nM | Cc1cc(C(=O)NC2CCC(=Cc3cccc(Oc4ccc(C(F)(F)F)cn4)c3)CC2)cnc1N (stereo unspecified) [US9682953, 20.A-5]
